Like-named read-outs stand apart in the source and are kept apart here.
Columns and labels:
[1] = target: human CB2 receptors (Homo sapiens (Human), UniProt P34972); assay: cAMP assay, CHO cells expressing human CB2 receptors; type: cell-based
Method in brief: (§1)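 In this cellular cAMP test, IBMX (1 mM) blocked phosphodiesterase during a 30-min, 30 °C compound exposure. Accumulated cAMP was measured by a lysis-based TR-FRET kit and interpolated from a standard curve to give EC50.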

[2] = target: human CB1 receptors (Homo sapiens (Human), UniProt P21554); assay: cAMP assay, CHO cells expressing human CB1 receptors; type: cell-based
Chain of human CB1 receptors (P21554 whole entry): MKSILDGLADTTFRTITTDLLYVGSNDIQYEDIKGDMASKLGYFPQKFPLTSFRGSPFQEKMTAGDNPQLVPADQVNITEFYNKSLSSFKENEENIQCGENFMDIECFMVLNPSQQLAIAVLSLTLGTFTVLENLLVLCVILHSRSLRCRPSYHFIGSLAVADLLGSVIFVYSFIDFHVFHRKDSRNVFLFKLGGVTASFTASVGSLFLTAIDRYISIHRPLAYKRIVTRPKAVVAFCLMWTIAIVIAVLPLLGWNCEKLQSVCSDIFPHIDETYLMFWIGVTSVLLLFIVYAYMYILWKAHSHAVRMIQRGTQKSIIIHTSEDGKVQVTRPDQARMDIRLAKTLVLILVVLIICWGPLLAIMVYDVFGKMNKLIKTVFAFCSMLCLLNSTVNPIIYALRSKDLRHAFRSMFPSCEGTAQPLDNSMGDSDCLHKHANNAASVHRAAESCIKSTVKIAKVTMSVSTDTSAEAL
Method in brief: as §1

[3] = CHO cells expressing human CB2, cAMP, read-out: human CB2 EC50
[4] = CHO cells expressing human CB1, cAMP, read-out: human CB1 EC50

Chain of human CB2 receptors (P34972 whole entry): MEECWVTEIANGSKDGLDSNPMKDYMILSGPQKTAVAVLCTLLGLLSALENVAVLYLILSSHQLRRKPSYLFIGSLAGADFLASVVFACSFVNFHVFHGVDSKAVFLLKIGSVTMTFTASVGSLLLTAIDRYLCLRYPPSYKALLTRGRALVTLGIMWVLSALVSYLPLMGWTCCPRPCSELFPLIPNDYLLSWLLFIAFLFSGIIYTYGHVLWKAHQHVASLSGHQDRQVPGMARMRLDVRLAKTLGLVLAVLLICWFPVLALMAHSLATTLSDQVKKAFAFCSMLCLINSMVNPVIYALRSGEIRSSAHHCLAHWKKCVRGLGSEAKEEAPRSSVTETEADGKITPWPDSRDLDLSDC

Row | SMILES | EC50 [1, 3] | EC50 [2, 4] | EC50 [1] | EC50 [2]
1 | Cc1nc(C(C)(C)NC(=O)c2ccc(C3CCCO3)c(-c3cccc(Cl)c3)n2)no1 (stereo not shown) [Example 125, 6-(3-Chloro-phenyl)-5-(tetrahydro-furan-2-yl)-pyridine-2-carboxylic acid [1-methyl-1-(5-methyl-[1,2,4]oxadiazol-3-yl)-ethyl]-amide] | 209 nM | > 10000 nM |  | 
2 | Cc1nc(C(C)(C)NC(=O)c2ccc(C3CCOC3)c(OCC3CC3)n2)no1 (stereo not shown) [Example 124, 6-Cyclopropylmethoxy-5-(tetrahydro-furan-3-yl)-pyridine-2-carboxylic acid [1-methyl-1-(5-methyl-[1,2,4]oxadiazol-3-yl)-ethyl]-amide] | 79.2 nM | > 10000 nM |  | 
3 | CNC(=O)[C@H](CC(C)C)NC(=O)c1cccc(-c2ccc(F)c(Cl)c2)n1 [Example 212, (S)-6-(3-Chloro-4-fluorophenyl)-N-(4-methyl-1-(methylamino)-1-oxopentan-2-yl)picolinamide] | 13.4 nM | > 10000 nM |  | 
4 | CNC(=O)[C@@H](NC(=O)c1ccc(C2CC2)c(S(=O)(=O)CC(C)C)n1)C(C)(C)C [Example 364, 5-Cyclopropyl-6-(2-methyl-propane-1-sulfonyl)-pyridine-2-carboxylic acid ((S)-2,2-dimethyl-1-methylcarbamoyl-propyl)-amide] |  |  | 12.9 nM | > 10000 nM
5 | CC(C)(NC(=O)c1ccc(C2CCOCC2)c(OCC2CC2)n1)c1ncco1 [Example 93, 6-Cyclopropylmethoxy-5-(tetrahydro-pyran-4-yl)-pyridine-2-carboxylic acid (1-methyl-1-oxazol-2-yl-ethyl)-amide] | 120 nM | > 10000 nM |  | 
6 | Cc1nc([C@H](NC(=O)c2ccc(C3CC3)c(OCC3CC3)n2)C2CC2)no1 [Example 197, (−)-5-Cyclopropyl-6-cyclopropylmethoxy-pyridine-2-carboxylic acid [cyclopropyl-(5-methyl-[1,2,4]oxadiazol-3-yl)-methyl]-amide] | 33.2 nM | > 10000 nM |  | 
7 | CC(C)(NC(=O)c1ccc(C2CC2)c(OCC2CC2)n1)c1nc(N)no1 [Example 309, 5-Cyclopropyl-6-cyclopropylmethoxy-pyridine-2-carboxylic acid [1-(3-amino-[1,2,4]oxadiazol-5-yl)-1-methyl-ethyl]-amide] | 176 nM | > 10000 nM |  | 
8 | CNC(=O)[C@H](CC(C)(C)C)NC(=O)c1cccc(Cc2ccc(F)cc2)n1 [Example 286, 6-(4-Fluoro-benzyl)-pyridine-2-carboxylic acid ((S)-3,3-dimethyl-1-methylcarbamoyl-butyl)-amide] | 8.2 nM | 1870 nM |  | 
9 | NC(=O)[C@@H](NC(=O)c1ccc(C2CC2)c(OCC2CC2)n1)c1ccc(Cl)cc1 [Example 329, 5-Cyclopropyl-6-cyclopropylmethoxy-pyridine-2-carboxylic acid [(S)-carbamoyl-(4-chloro-phenyl)-methyl]-amide] | 21.1 nM | > 10000 nM |  | 
10 | COC(=O)C1CCCCC1NC(=O)c1cccc(C2CCCCC2)n1 (stereo not shown) [Example 92, 2-[(6-Cyclohexyl-pyridine-2-carbonyl)-amino]-cyclohexanecarboxylic acid methyl ester] | 320 nM | > 10000 nM |  | 
11 | Cc1nc(C(NC(=O)c2ccc(C3CC3)c(OCC3CC3)n2)C2CC2)no1 (stereo not shown) [Example 190, 5-Cyclopropyl-N-(cyclopropyl(5-methyl-1,2,4-oxadiazol-3-yl)methyl)-6-(cyclopropylmethoxy)picolinamide] | 20.4 nM | > 10000 nM |  | 
12 | Cc1nc(C(C)(CC2CC2)NC(=O)c2ccc(N3CC(F)(F)C3)c(OCC3CC3)n2)no1 (stereo not shown) [Example 341, 6-Cyclopropylmethoxy-5-(3,3-difluoro-azetidin-1-yl)-pyridine-2-carboxylic acid [2-cyclopropyl-1-methyl-1-(5-methyl-[1,2,4]oxadiazol-3-yl)-ethyl]-amide] | 8.4 nM | > 10000 nM |  | 
13 | Cc1csc(C(C)(C)NC(=O)c2ccc(C3CC3)c(OCC3CC3)n2)n1 [Example 294, 5-Cyclopropyl-6-cyclopropylmethoxy-pyridine-2-carboxylic acid [1-methyl-1-(4-methyl-thiazol-2-yl)-ethyl]-amide] | 112 nM | > 10000 nM |  | 
14 | CC(C)(NC(=O)c1ccc(C2CC2)c(OCC2CC2)n1)c1ncon1 [Example 73, 5-Cyclopropyl-6-cyclopropylmethoxy-pyridine-2-carboxylic acid (1-methyl-1-[1,2,4]oxadiazol-3-yl-ethyl)-amide] | 40.7 nM | 1320 nM |  | 
15 | CC1CC(NC(=O)c2cccc(-c3cccc(Cl)c3)n2)CCO1 (stereo not shown) [Example 26, 6-(3-Chloro-phenyl)-pyridine-2-carboxylic acid (2-methyl-tetrahydro-pyran-4-yl)-amide] | 691 nM | > 10000 nM |  | 
16 | Cc1nc([C@@](C)(CC2CC2)NC(=O)c2ccc(C3CC3)c(OCC3CC3)n2)no1 [Example 358, 5-Cyclopropyl-6-cyclopropylmethoxy-pyridine-2-carboxylic acid [(−)-2-cyclopropyl-1-methyl-1-(5-methyl-[1,2,4]oxadiazol-3-yl)-ethyl]-amide] | 4.9 nM | 489 nM |  | 
17 | NC(=O)[C@H](CC1CC1)NC(=O)c1ccc(C2CCCC2)c(OCC2CC2)n1 [Example 107, 5-Cyclopentyl-6-cyclopropylmethoxy-pyridine-2-carboxylic acid ((S)-1-carbamoyl-2-cyclopropyl-ethyl)-amide] | 10.7 nM | 1460 nM |  | 
18 | NC(=O)[C@H](CC1CC1)NC(=O)c1ccc(C2CC2)c(OCC2CC2)n1 [Example 98, 5-Cyclopropyl-6-cyclopropylmethoxy-pyridine-2-carboxylic acid ((S)-1-carbamoyl-2-cyclopropyl-ethyl)-amide] | 27.6 nM | > 10000 nM |  | 
19 | CCC(CC)(NC(=O)c1cccc(-c2ccc(Cl)cc2)n1)C(=O)NC [Example 76, 6-(4-Chloro-phenyl)-pyridine-2-carboxylic acid (1-ethyl-1-methylcarbamoyl-propyl)-amide] | 185 nM | > 10000 nM |  | 
20 | NC(=O)[C@H](CC1CC1)NC(=O)c1ccc(C2CC2)c(-c2cccc(Cl)c2)n1 [Example 97, 6-(3-Chloro-phenyl)-5-cyclopropyl-pyridine-2-carboxylic acid ((S)-1-carbamoyl-2-cyclopropyl-ethyl)-amide] | 508 nM | > 10000 nM |  | 
21 | CN(C)C(=O)[C@H](NC(=O)c1ccc(C2CC2)c(OCC2CC2)n1)c1ccccc1 [Example 227, 5-Cyclopropyl-6-cyclopropylmethoxy-pyridine-2-carboxylic acid ((−)-dimethylcarbamoyl-phenyl-methyl)-amide] | 40.8 nM | > 10000 nM |  | 
22 | CCC(CC)(NC(=O)c1ccc(C(F)(F)F)c(OCC2CC2)n1)C(=O)OC [Example 249, 2-[(6-Cyclopropylmethoxy-5-trifluoromethyl-pyridine-2-carbonyl)-amino]-2-ethyl-butyric acid methyl ester] | 2.2 nM | > 10000 nM |  | 
23 | CCC(CC)(NC(=O)c1ccc(N2CCC(F)(F)C2)c(OCC2CC2)n1)C(=O)NC [Example 78, 6-Cyclopropylmethoxy-5-(3,3-difluoro-pyrrolidin-1-yl)-pyridine-2-carboxylic acid (1-ethyl-1-methylcarbamoyl-propyl)-amide] | 4.6 nM | > 10000 nM |  | 

Reference: US9290451B2 (Hoffmann-La Roche Inc., priority 2011, dated 2016)
